How the values were obtained:
Assay type in all cases: cell-based, human
SKMEL-p53 mut = assay: Growth of cell line with IFN-β and MEZ, alone and in combination (Coulter Counter cell numbers); details: 96-h growth, IFN-β 2000 U/ml, MEZ 10 ng/ml, IFN-β + MEZ 2000 U/ml + 10 ng/ml
Protocol: (§1) Cell Lines and Culture Conditions. H0-1 is a melanotic melanoma cell line produced from a metastatic inguinal lymph node lesion from a person and was used between passages 150 and 175 (13,21,22). FM516-SV is a normal human melanocyte culture immortalized by the SV40 T-antigen gene (23). Additional melanoma cell lines established from patients with metastatic melanomas that were evaluated, include LO-1, SH-1, WM239, MeWo, SKMEL-p53 wt (containing a wild-type p53 gene) and SKMEL-p53 mut (containing a mutant p53 gene) (13,21,24). Cultures were grown at 37° C. in a 95% air 5% C02-humidified incubator in Dulbecco's modified Eagle's medium (DMEM) supplemented with 5 or 10% fetal bovine serum (Hyclone, Utah). Cultures were maintained in the logarithmic phase of growth by subculturing (1:5 or 1:10) prior to confluence approximately every 4 to 7 d. For determining steady-state RNA expression, cultures were seeded at 1.5×10^6 cells per 10-cm tissue culture plate, and 24 h later the medium was changed without inducers or with IFN-β (2000 U/ml), MEZ (10 ng/ml) or IFN-β+MEZ (2000 U/ml+10 ng/ml). Total cytoplasmic RNA was isolated at various time points and analyzed for mda-9 and GAPDH expression.

SH-1 = assay: as above; details: 96-h growth, IFN-β 2000 U/ml, MEZ 10 ng/ml, IFN-β + MEZ 2000 U/ml + 10 ng/ml
Protocol: as §1

LO-1 = assay: as above; details: 96-h growth, IFN-β 2000 U/ml, MEZ 10 ng/ml, IFN-β + MEZ 2000 U/ml + 10 ng/ml
Protocol: as §1

FM516-SV [1] = assay: as above; details: 96-h growth, IFN-β 2000 U/ml, MEZ 10 ng/ml, IFN-β + MEZ 2000 U/ml + 10 ng/ml
Protocol: as §1

MeWo = assay: as above; details: 96-h growth, IFN-β 2000 U/ml, MEZ 10 ng/ml, IFN-β + MEZ 2000 U/ml + 10 ng/ml
Protocol: as §1

WM239 = assay: as above; details: 96-h growth, IFN-β 2000 U/ml, MEZ 10 ng/ml, IFN-β + MEZ 2000 U/ml + 10 ng/ml
Protocol: as §1

HO-1 = assay: as above; details: for Cell numbers (average of triplicate plates ± S.D.) / percent of control growth: HO-1, 96-h growth, IFN-β 2000 U/ml, MEZ 10 ng/ml, IFN-β + MEZ 2000 U/ml + 10 ng/ml
Protocol: as §1

SKMEL-p53 wt = assay: as above; details: 96-h growth, IFN-β 2000 U/ml, MEZ 10 ng/ml, IFN-β + MEZ 2000 U/ml + 10 ng/ml
Protocol: as §1

[2] = system: mda-9 expression in H0-1 cells; assay: mda-9 RNA expression by Northern blotting, equalized to GAPDH
Protocol: FIG. 1. Temporal expression of mda-9 in H0-1 cells exposed to IFN-β+MEZ. RNAs were isolated from untreated and H0-1 cells treated with IFN-β+MEZ (2000 U/ml+10 ng/ml) for 0.25, 0.5, 1, 2, 4, 8, 12 and 24 h. Ten micrograms of total cellular RNA were separated on 1% agarose gel, transferred to nylon membranes, sequentially hybridized with an mda-9 and then a GAPDH probe, and then exposed to autoradiography.
FIG. 4. Effect of interferons on mda-9 expression in H0-1 cells. H0-1 cells were grown for 96 h in the absence or presence of IFN-α (100 and 1000 U/ml), IFN-β (100 and 1000 U/ml) or IFN-γ (100 U/ml) and RNA was analyzed as described in FIG. 1.
FIGS. 9A-9B. Temporal and dose kinetics of IFN-γ enhancement in mda-9 expression in H0-1 human melanoma cells. H0-1 cells were treated for the indicated time (FIG. 9A) and dose (FIG. 9B) of IFN-γ, RNA was then isolated and analyzed by Northern blotting. […] Replicate samples varied by ≦15%.
as §1
RNA Isolation, Northern Blotting and Southern Blotting of Genomic DNAs. Total cellular RNA was isolated by the guanidinium/phenol procedure and Northern blotting was performed as described (30-32). Ten μg of RNA were denatured with glyoxal/dimethyl sulfoxide (DMSO), electrophoresed on 1.0% agarose gels, transferred to nylon membranes and hybridized to a ^32P-labeled mda-9 probe and then after stripping the membranes were hybridized to a ^32P-labeled rat GAPDH probe (33) as described previously (30-32). […] RNA blots were quantitated by densitometric analysis using a Molecular Dynamics densitometer (Sunnyvale, Calif.) (34). […]

H0-1 cells = assay: Effect of interferons on growth of H0-1 cells (FIG. 3); details: 4 d treatment with 100 U/ml interferon
Protocol: FIG. 3. […] Results are the average cell number ±S.D. from the mean.
Experiments were performed to determine if a relationship exists between growth suppression and reduced mda-9 expression. To test this connection, the effect of interferon and MEZ treatment on proliferation and mda-9 expression in human melanoma cells was determined.

[3] = system: mda-9 expression in FM516-SV cells; assay: mda-9 RNA expression by Northern blotting, densitometer comparison with GAPDH
Protocol: FIG. 2. Effects of IFN-β+MEZ on mda-9 expression in human melanoma cells and an SV40-immortalized human melanocyte cell line. The indicated cell line was grown in the presence or absence of IFN-β+MEZ (2000 U/ml+10 ng/ml) for 96 h and RNA was analyzed as described in FIG. 1.
as §1, with “Cultures were maintained in the logarithmic phase of growth by subculturing (1:5 or 1:10) prior to confluence approximately every 4 to 7 d. For determining steady-state RNA expression, cultures were seeded at 1.5×10^6 cells per 10-cm tissue culture plate, and 24 h later the medium was changed without inducers or with IFN-β (2000 U/ml), MEZ (10 ng/ml) or IFN-β+MEZ (2000 U/ml+10 ng/ml).” left out
RNA Isolation, Northern Blotting and Southern Blotting of Genomic DNAs. […] RNA blots were quantitated by densitometric analysis using a Molecular Dynamics densitometer (Sunnyvale, Calif.) (34). […]

H0-1 = assay: Effect of recombinant immune interferon (IFN-γ) on growth (cell numbers); details: 96 hr
Source text: (§2) Cell lines and culture conditions. H0-1 is a melanotic melanoma cell line produced from a metastatic inguinal node lesion from a person and was used between passages 170 and 200 (Giovanella et al., 1976; Huberman et al., 1979; Fisher et al., 1985). C8161 is a highly metastatic amelanotic human melanoma cell line derived from an abdominal wall metastasis (Welch et al., 1991). FM516-SV is a normal human melanocyte culture immortalized by the SV40 T-antigen gene (Melber et al., 1989). The WM35 cell line was isolated from a patient with a radial growth phase primary melanoma (Herlyn, 1990). The WM278 cell line is from a patient with an early vertical growth phase primary melanoma (Herlyn, 1990). Cultures were grown at 37° C. in a 95% air 5% C02-humidified incubator in Dulbecco's modified Eagle's medium (DMEM) supplemented with 5 or 10% fetal bovine serum. Cultures were maintained in the logarithmic phase of growth by subculturing (1:5 or 1:10) prior to confluence approximately every 4 to 7 D.

WM35 = assay: as above; details: 96 hr
Source text: as §2

FM516-SV [4] = assay: as above; details: 96 hr
Source text: as §2

C8161 = assay: as above; details: 96 hr
Source text: as §2

WM278 = assay: as above; details: 96 hr
Source text: as §2

[5] = H0-1 cells grown for 4 days in 10 ng/ml of MEZ

C=C(C)[C@@]12O[C@@]3(c4ccccc4)O[C@@H]1[C@@H]1[C@@H]4O[C@]4(CO)[C@@H](O)[C@]4(O)C(=O)C(C)=C[C@H]4[C@@]1(O3)[C@H](C)[C@H]2OC(=O)/C=C/C=C/c1ccccc1 [MEZ, mezerein, reference compound]
Cell numbers (average of triplicate plates ± S.D.) (SKMEL-p53 mut): 21.5 ± 4.3 | percent of control growth (SKMEL-p53 mut): 60% | Cell numbers (average of triplicate plates ± S.D.) (SH-1): 14.1 ± 0.3 | percent of control growth (SH-1): 57% | Cell numbers (average of triplicate plates ± S.D.) (LO-1): 4.7 ± 0.4 | percent of control growth (LO-1): 28% | Cell numbers (average of triplicate plates ± S.D.) (FM516-SV [1]): 12.7 ± 1.8 | percent of control growth (FM516-SV [1]): 60% | Cell numbers (average of triplicate plates ± S.D.) (MeWo): 15.4 ± 1.9 | percent of control growth (MeWo): 46% | Cell numbers (average of triplicate plates ± S.D.) (WM239): 19.7 ± 1.2 | percent of control growth (WM239): 40% | growth reduction (HO-1; [5]): ~74% | Cell numbers (average of triplicate plates ± S.D.) (HO-1): 16.8 ± 1.0 | percent of control growth (HO-1): 26% | Cell numbers (average of triplicate plates ± S.D.) (SKMEL-p53 wt): 3.6 ± 0.7 | percent of control growth (SKMEL-p53 wt): 21% | mda-9 expression [2, 5]: unaffected

IFN-γ: Recombinant human IFN-γ (type II, immune interferon)
time at which enhanced mda-9 expression is apparent ([2]; H0-1, 100 U/ml of recombinant human IFN-γ): ≤ 2 h | dose giving maximum enhancing effects on mda-9 expression ([2]; H0-1, IFN-γ dose-response): 10 U/ml | low dose at which mda-9 expression is elevated ([2]; H0-1, IFN-γ dose-response): 0.1 U/ml | reduction of H0-1 growth (H0-1 cells): ~43% | dose giving maximum enhancing effects on mda-9 expression ([3]; IFN-γ dose-response): 10 U/ml | low dose at which mda-9 expression is elevated ([3]; IFN-γ dose-response (data not shown)): 0.1 U/ml | average cell number ± S.D. (H0-1; 1 U/ml of IFN-γ): 15.8 ± 0.5 | percent of cell number reduction versus control (H0-1; 1 U/ml of IFN-γ): 22% | average cell number ± S.D. (H0-1; 10 U/ml of IFN-γ): 15.4 ± 0.3 | percent of cell number reduction versus control (H0-1; 10 U/ml of IFN-γ): 24% | average cell number ± S.D. (H0-1; 100 U/ml of IFN-γ): 11.5 ± 1.3 | percent of cell number reduction versus control (H0-1; 100 U/ml of IFN-γ): 44% | average cell number ± S.D. (WM35; 1 U/ml of IFN-γ): 84.8 ± 6.7 | percent of cell number reduction versus control (WM35; 1 U/ml of IFN-γ): 2% | average cell number ± S.D. (WM35; 10 U/ml of IFN-γ): 62.7 ± 4.3 | percent of cell number reduction versus control (WM35; 10 U/ml of IFN-γ): 28% | average cell number ± S.D. (WM35; 100 U/ml of IFN-γ): 28.2 ± 1.7 | percent of cell number reduction versus control (WM35; 100 U/ml of IFN-γ): 67% | average cell number ± S.D. (FM516-SV [4]; 1 U/ml of IFN-γ): 16.8 ± 0.5 | percent of cell number reduction versus control (FM516-SV [4]; 1 U/ml of IFN-γ): 19% | average cell number ± S.D. (FM516-SV [4]; 10 U/ml of IFN-γ): 9.8 ± 0.6 | percent of cell number reduction versus control (FM516-SV [4]; 10 U/ml of IFN-γ): 52% | average cell number ± S.D. (FM516-SV [4]; 100 U/ml of IFN-γ): 5.1 ± 0.3 | percent of cell number reduction versus control (FM516-SV [4]; 100 U/ml of IFN-γ): 75% | average cell number ± S.D. (C8161; 1 U/ml of IFN-γ): 24.4 ± 0.8 | percent of cell number reduction versus control (C8161; 1 U/ml of IFN-γ): 30% | average cell number ± S.D. (C8161; 10 U/ml of IFN-γ): 25.1 ± 0.8 | percent of cell number reduction versus control (C8161; 10 U/ml of IFN-γ): 28% | average cell number ± S.D. (C8161; 100 U/ml of IFN-γ): 22.2 ± 1.4 | percent of cell number reduction versus control (C8161; 100 U/ml of IFN-γ): 36% | average cell number ± S.D. (WM278; 1 U/ml of IFN-γ): 14.9 ± 0.8 | percent of cell number reduction versus control (WM278; 1 U/ml of IFN-γ): 33% | average cell number ± S.D. (WM278; 10 U/ml of IFN-γ): 12.7 ± 1.0 | percent of cell number reduction versus control (WM278; 10 U/ml of IFN-γ): 42% | average cell number ± S.D. (WM278; 100 U/ml of IFN-γ): 12.5 ± 0.6 | percent of cell number reduction versus control (WM278; 100 U/ml of IFN-γ): 44%

B1: IFN-β: Recombinant human IFN-β, with a serine substituted for a cysteine at position 17 of the molecule (protein, UniProt P01574 22-187, looked up, variant C17S)
Interferon beta: MSYNLLGFLQRSSNFQSQKLLWQLNGRLEYCLKDRMNFDIPEEIKQLQQFQKEDAALTIYEMLQNIFAIFRQDSSSTGWNETIVENLLANVYHQINHLKTVLEEKLEKEDFTRGKLMSSLHLKRYYGRILHYLKAKEYSHCAWTIVRVEILRNFYFINRLTGYLRN
Cell numbers (average of triplicate plates ± S.D.) (SKMEL-p53 mut): 39.5 ± 7.5 | percent of control growth (SKMEL-p53 mut): (109) % | Cell numbers (average of triplicate plates ± S.D.) (SH-1): 14.3 ± 1.5 | percent of control growth (SH-1): (57) % | Cell numbers (average of triplicate plates ± S.D.) (LO-1): 1.3 ± 0.3 | percent of control growth (LO-1): (8) % | Cell numbers (average of triplicate plates ± S.D.) (FM516-SV [1]): 7.8 ± 1.0 | percent of control growth (FM516-SV [1]): (37) % | Cell numbers (average of triplicate plates ± S.D.) (MeWo): 15.6 ± 1.9 | percent of control growth (MeWo): (46) % | Cell numbers (average of triplicate plates ± S.D.) (WM239): 9.5 ± 0.9 | percent of control growth (WM239): (19) % | Cell numbers (average of triplicate plates ± S.D.) (HO-1): 14.0 ± 2.6 | percent of control growth (HO-1): (22) % | Cell numbers (average of triplicate plates ± S.D.) (SKMEL-p53 wt): 9.1 ± 0.3 | percent of control growth (SKMEL-p53 wt): (54) % | reduction of H0-1 growth (H0-1 cells): ~70%
